Here are results for eight molecules from patent publication US4450269A, “Mono-5-substituted-3-chloro-4H-1,2,6-thiadiazin-4-one antifungal agents” (FMC Corporation, priority 1980, dated 1984).

Read-outs that look alike come from different tables or passages of the source.

In assay [1] the test system is Cladosporium cucumerinum. Description: Mycelial growth test. The class given is cell-based. The note with it: Cladosporium cucumerinum, CC, read-out: Percent Fungus Growth Inhibition; for inhibition at 5 ppm / inhibition at 10 ppm / inhibition at 40 ppm: 72 h; for inhibition at 20 ppm: CC20, 72 h. An excerpt: |CC = Cladosporium cucumerinum
Assay [2] deals with Pyricularia oryzae. It counts as cell-based. To be noted: PO, 48 hours.

As a reminder, the inhibition is how much of the control response was suppressed. For `O=C(OCc1ccccc1)Oc1ccc(Oc2nsnc(Cl)c2=O)cc1` [Compound 38, 3-chloro-5-[4-(phenylmethoxycarbonyloxy)phenoxyl]-4H-1,2,6-thiadiazin-4-one], in assay [1], the inhibition at 5 ppm is 0%, the inhibition at 10 ppm stood at 0%, the inhibition at 40 ppm was found to be 26% and the inhibition at 20 ppm was 0%. For the same molecule, in assay [2] (1.0 ppm), the “Spore Germination Rating” value is listed as 4 (80-100). Also, the “Spore Germination Rating” value in assay [2] (2.5 ppm) is listed as 3 (60-80). In addition, the “Spore Germination Rating” value in assay [2] (10 ppm) is 2 (40-60). Moreover, in assay [2] (40 ppm), the “Spore Germination Rating” value is listed as 2 (40-60).
For the molecule `CSc1ccc(Oc2nsnc(Cl)c2=O)cc1` [Compound 39, 3-chloro-5-[(4-methylthio)phenoxy]-4H-1,2,6,-thiadiazin-4-one], the inhibition at 5 ppm in assay [1] amounted to 16%. In addition, the inhibition at 10 ppm in assay [1] was 16%. Further, the inhibition at 40 ppm in assay [1] turned out to be 32%. Besides, in assay [1], the inhibition at 20 ppm stood at 23%. For the same molecule, the “Spore Germination Rating” value in assay [2] (1.0 ppm) is recorded as 2 (40-60); in assay [2] (2.5 ppm), 1 (10-40); in assay [2] (10 ppm) it was 1 (10-40); in assay [2] (40 ppm), 0 (0-10).
With `C[S+]([O-])c1ccc(Oc2nsnc(Cl)c2=O)cc1` (stereo not shown) [Compound 40, 3-chloro-5-[(4-methylsulfinyl)phenoxy]-4H-1,2,6,-thiadiazin-4-one], in assay [1], the inhibition at 5 ppm was determined as 0%, the inhibition at 10 ppm came to 48%, the inhibition at 40 ppm stood at 48% and the inhibition at 20 ppm is 32%. The “Spore Germination Rating” value in assay [2] (1.0 ppm) is 4 (80-100). Further, the “Spore Germination Rating” value in assay [2] (2.5 ppm) is 3 (60-80). Moreover, the “Spore Germination Rating” value in assay [2] (10 ppm) was 4 (80-100). Besides, the “Spore Germination Rating” value in assay [2] (40 ppm) is on record as 1 (10-40).
For `CC(=O)Nc1cccc(Oc2nsnc(Cl)c2=O)c1` [Compound 42, 3-[(3-N--acetylamino)-phenoxy]-5-chloro-4H--1,2,6-thiadiazin-4-one], in assay [1], the inhibition at 5 ppm was 14%. Further, the inhibition at 10 ppm in assay [1] amounted to 22%. Further, the inhibition at 40 ppm in assay [1] was determined as 18%. In addition, the inhibition at 20 ppm in assay [1] worked out at 14%. For the same molecule, the “Spore Germination Rating” value is on record as 4 (80-100) in assay [2] (1.0 ppm), 4 (80-100) in assay [2] (2.5 ppm), 3 (60-80) in assay [2] (10 ppm) and 0 (0-10) in assay [2] (40 ppm).
Turning to `CC(=O)Nc1ccccc1Oc1nsnc(Cl)c1=O` [Compound 43, 3-[(2-acetylamino)-phenoxy]-5-chloro-4H--1,2,6-thiadiazin-4-one], in assay [1], the inhibition at 5 ppm was 0%, the inhibition at 10 ppm was determined as 0%, the inhibition at 40 ppm was found to be 17% and the inhibition at 20 ppm was determined as 6%. Moreover, the “Spore Germination Rating” value in assay [2] (1.0 ppm) is listed as 4 (80-100). Besides, the “Spore Germination Rating” value in assay [2] (2.5 ppm) is recorded as 4 (80-100). In assay [2] (10 ppm), the “Spore Germination Rating” value was 4 (80-100). Moreover, the “Spore Germination Rating” value in assay [2] (40 ppm) is recorded as 1 (10-40).
On to `O=c1c(Cl)nsnc1Oc1cccc(C(F)(F)F)c1` [Compound 44, 3-chloro-5-[(3-trifluoromethyl)phenoxy]-4H--1,2,6-thiadiazin-4-one], for which, in assay [1], the inhibition at 5 ppm worked out at 36%, the inhibition at 10 ppm was 56%, the inhibition at 40 ppm was determined as 100% and the inhibition at 20 ppm came to 92%. Further, the “Spore Germination Rating” value in assay [2] (1.0 ppm) is 1 (10-40). Further, in assay [2] (2.5 ppm), the “Spore Germination Rating” value is given as 0 (0-10). For the same molecule, in assay [2] (10 ppm), the “Spore Germination Rating” value was 0 (0-10). Further, the “Spore Germination Rating” value in assay [2] (40 ppm) is on record as 0 (0-10).
Regarding `O=C(O)Cc1ccccc1Oc1nsnc(Cl)c1=O` [Compound 45, 3-(2-carboxymethylphenoxy)-5-chloro-4H--1,2,6-thiadiazin-4-one], in assay [1], the inhibition at 5 ppm was 0%, the inhibition at 10 ppm worked out at 0%, the inhibition at 40 ppm was determined as 0% and the inhibition at 20 ppm came out at 12%. For the same molecule, the “Spore Germination Rating” value in assay [2] (1.0 ppm) is 4 (80-100). In assay [2] (2.5 ppm), the “Spore Germination Rating” value is recorded as 4 (80-100). For the same molecule, the “Spore Germination Rating” value in assay [2] (10 ppm) is 4 (80-100). Also, the “Spore Germination Rating” value in assay [2] (40 ppm) is given as 1 (10-40).
`N#CCc1ccc(Oc2nsnc(Cl)c2=O)cc1` [Compound 46, 3-chloro-5-[(4-cyanomethyl)-phenoxy]4H--1,2,6-thiadiazin-4-one]: in assay [1], the inhibition at 5 ppm was determined as 0%, the inhibition at 10 ppm turned out to be 0%, the inhibition at 40 ppm amounted to 100% and the inhibition at 20 ppm came out at 46%. Also, the “Spore Germination Rating” value in assay [2] (1.0 ppm) is recorded as 0 (0-10). Also, the “Spore Germination Rating” value in assay [2] (2.5 ppm) is reported as 0 (0-10). The “Spore Germination Rating” value in assay [2] (10 ppm) is reported as 0 (0-10). In addition, the “Spore Germination Rating” value in assay [2] (40 ppm) is 0 (0-10).
